Source: patent publication US8445409B2, “Use of 5-benzyloxymethyl-1,2-isoxazoline derivatives as a herbicide” (Moghu Research Center Ltd., priority 2007, dated 2013)

Experiments:
Zoysiagrass = assay: Turfgrass safety test (sod mat pots), visual phytotoxicity; assay type: in vivo, Zoysia japonica; conditions: for Phytotoxic effect, visual assessment: Zoysiagrass Week 2 / Phytotoxic effect, visual assessment: Zoysiagrass Week 4 / Phytotoxic effect, visual assessment: Zoysiagrass Week 6: 0-10 scale (10=completely killed)
Text: (§1) Commercially available sod mats of zoysiagrass and bentgrass, Kentucky bluegrass, and perennial ryegrass were purchased. After cutting each turf sod mat in a size of 10 cm×20 cm, it was transplanted to a rectangular plastic pot having a surface area of 300 cm^2 wherein mixed soils including blend of a bed soil (Boonong, Horticultural Nursery Soil No. 3) and sandy loam soil were filled (mixing ratio, 1:1). After transplanting, the grass was mowed (0.5˜1.0 cm in height) once a week, and kept for one month in a greenhouse maintained at 25˜30° C. (day) or 15˜25° C. (night), then the test substance of the present invention was applied at dosage of 4, 2, 1 and 0.5 kg/ha. As a reference, Dithiopyr (32% EC, manufactured by Dongbu Hannong Chemical Company, KOREA) was applied at the recommended rate of 0.48 kg/ha, or twice or quadruple amount thereof, i.e., 0.96 and 1.92 kg/ha, respectively. Spray was made by a track sprayer equipped with a Teejet 8002 nozzle. Spray volume was adjusted to 2,000 L/ha, which was a typical value for an Asian (Korea and Japan) golf course. The spray solution was prepared by dissolving the “test substance” in acetone and adding the same volume of 0.2% (v/v) Tween 20 aqueous solution. Two, four or six weeks after the spray of the test substance, phytotoxicity to the turfgrass were visually evaluated based on 0 to 10 scale (0: no phytotoxic effect, 10: completely killed). The test was conducted in a randomized block design with a three replicates and the results were summarized in the following Table 2 is an average value of the replicates.

Large crabgrass = assay: Herbicidal activity at different growth stages, fresh weight suppression; assay type: in vivo; conditions: fresh weight two weeks after treatment
Experimental: (§2) To a cup pot having a surface area of 100 cm^2 wherein mixed soils including blend bed soil (Boonong, Horticultural Bed Soil No. 3) and sandy loam soil were filled (mixing ratio, 1:1), seeds of large crabgrass and annual bluegrass were sown consecutively at an one week interval. The pots were moistened by sub-irrigation, and kept in a greenhouse maintained at 25˜30° C. (day) or 15˜25° C. (night). The said weeds were grown to various growth stages from pre-emergence to the four-leaf stage. Then, they were applied with the test substance of the present invention at dosage of 2, 1, 0.5, or 0.25 kg/ha. As a reference herbicide, Dithiopyr (32% EC, manufactured by Dongbu Hannong Chemical Company), was applied at 0.96, 0.48, or 0.24 kg/ha. Spray volume was adjusted to 2,000 L/ha. The method to spray of the test substance and prepare spray solutions were the same as described above. The reference herbicide was used after it was diluted with 0.2% (v/v) Tween 20 aqueous solution. The test was conducted in a randomized block design with three replicates. Two weeks after the treatment, plant parts remained above the pot soil surface were cut and the fresh weight was weighed. Results are given by a suppression ratio relative to the biomass that was obtained from the untreated group (see, Table 3).

Kentucky bluegrass = assay: Turfgrass safety test (sod mat pots), visual phytotoxicity; assay type: in vivo; conditions: 0-10 scale (10=completely killed)
Text: as §1

Bentgrass = assay: as above; assay type: in vivo; conditions: 0-10 scale (10=completely killed)
Text: as §1

Perennial ryegrass = assay: as above; assay type: in vivo; conditions: 0-10 scale (10=completely killed)
Text: as §1

Annual bluegrass = assay: Herbicidal activity at different growth stages, fresh weight suppression; assay type: in vivo; conditions: fresh weight two weeks after treatment
Experimental: as §2, with “Then, they were applied with the test substance of the present invention at dosage of 2, 1, 0.5, or 0.25 kg/ha. As a reference herbicide, Dithiopyr (32% EC, manufactured by Dongbu Hannong Chemical Company), was applied at 0.96, 0.48, or 0.24 kg/ha.” left out

CSC(=O)c1c(C(F)F)nc(C(F)(F)F)c(C(=O)SC)c1CC(C)C [Dithiopyr, reference compound]
Phytotoxic effect, visual assessment: Zoysiagrass Week 2 (Zoysiagrass; 0.48 kg/ha (recommended rate)): 1.0
Phytotoxic effect, visual assessment: Zoysiagrass Week 4 (Zoysiagrass; 0.48 kg/ha (recommended rate)): 1.0
Phytotoxic effect, visual assessment: Zoysiagrass Week 6 (Zoysiagrass; 0.48 kg/ha (recommended rate)): 0.7
Phytotoxic effect, visual assessment: Zoysiagrass Week 2 (Zoysiagrass; 0.96 kg/ha): 2.3
Phytotoxic effect, visual assessment: Zoysiagrass Week 4 (Zoysiagrass; 0.96 kg/ha): 1.5
Phytotoxic effect, visual assessment: Zoysiagrass Week 6 (Zoysiagrass; 0.96 kg/ha): 1.3
Phytotoxic effect, visual assessment: Zoysiagrass Week 2 (Zoysiagrass; 1.92 kg/ha): 3.7
Phytotoxic effect, visual assessment: Zoysiagrass Week 4 (Zoysiagrass; 1.92 kg/ha): 3.3
Phytotoxic effect, visual assessment: Zoysiagrass Week 6 (Zoysiagrass; 1.92 kg/ha): 3.0
Phytotoxicity against zoysiagrass (in words) (Zoysiagrass; in vivo): clearly evidencing the phytotoxicity
Suppression ratio relative to the biomass of the untreated group: Large crabgrass 1 leaf (Large crabgrass; .24 kg/ha): 100%
Suppression ratio relative to the biomass of the untreated group: Large crabgrass 2 leaf (Large crabgrass; .24 kg/ha): 89%
Suppression ratio relative to the biomass of the untreated group: Large crabgrass 3 leaf (Large crabgrass; .24 kg/ha): 86%
Suppression ratio relative to the biomass of the untreated group: Large crabgrass 4 leaf (Large crabgrass; .24 kg/ha): 56%
Suppression ratio relative to the biomass of the untreated group: Large crabgrass PRE (Large crabgrass; .24 kg/ha): 100%
Suppression ratio relative to the biomass of the untreated group: Large crabgrass 1 leaf (Large crabgrass; .48 kg/ha): 100%
Suppression ratio relative to the biomass of the untreated group: Large crabgrass 2 leaf (Large crabgrass; .48 kg/ha): 95%
Suppression ratio relative to the biomass of the untreated group: Large crabgrass 3 leaf (Large crabgrass; .48 kg/ha): 89%
Suppression ratio relative to the biomass of the untreated group: Large crabgrass 4 leaf (Large crabgrass; .48 kg/ha): 57%
Suppression ratio relative to the biomass of the untreated group: Large crabgrass PRE (Large crabgrass; .48 kg/ha): 100%
Suppression ratio relative to the biomass of the untreated group: Large crabgrass 1 leaf (Large crabgrass; .96 kg/ha): 100%
Suppression ratio relative to the biomass of the untreated group: Large crabgrass 2 leaf (Large crabgrass; .96 kg/ha): 98%
Suppression ratio relative to the biomass of the untreated group: Large crabgrass 3 leaf (Large crabgrass; .96 kg/ha): 89%
Suppression ratio relative to the biomass of the untreated group: Large crabgrass 4 leaf (Large crabgrass; .96 kg/ha): 66%
Suppression ratio relative to the biomass of the untreated group: Large crabgrass PRE (Large crabgrass; .96 kg/ha): 100%
Phytotoxic effect, visual assessment: Kentucky bluegrass Week 2 (Kentucky bluegrass; 0.48 kg/ha (recommended rate)): 1.5
Phytotoxic effect, visual assessment: Kentucky bluegrass Week 4 (Kentucky bluegrass; 0.48 kg/ha (recommended rate)): 0.5
Phytotoxic effect, visual assessment: Kentucky bluegrass Week 6 (Kentucky bluegrass; 0.48 kg/ha (recommended rate)): 0.7
Phytotoxic effect, visual assessment: Kentucky bluegrass Week 2 (Kentucky bluegrass; 0.96 kg/ha): 2.2
Phytotoxic effect, visual assessment: Kentucky bluegrass Week 4 (Kentucky bluegrass; 0.96 kg/ha): 2.7
Phytotoxic effect, visual assessment: Kentucky bluegrass Week 6 (Kentucky bluegrass; 0.96 kg/ha): 2.7
Phytotoxic effect, visual assessment: Kentucky bluegrass Week 2 (Kentucky bluegrass; 1.92 kg/ha): 3.7
Phytotoxic effect, visual assessment: Kentucky bluegrass Week 4 (Kentucky bluegrass; 1.92 kg/ha): 4.2
Phytotoxic effect, visual assessment: Kentucky bluegrass Week 6 (Kentucky bluegrass; 1.92 kg/ha): 4.2
Phytotoxic effect, visual assessment: Bentgrass Week 2 (Bentgrass; 0.48 kg/ha (recommended rate)): 1.5
Phytotoxic effect, visual assessment: Bentgrass Week 4 (Bentgrass; 0.48 kg/ha (recommended rate)): 0.3
Phytotoxic effect, visual assessment: Bentgrass Week 6 (Bentgrass; 0.48 kg/ha (recommended rate)): 0.3
Phytotoxic effect, visual assessment: Bentgrass Week 2 (Bentgrass; 0.96 kg/ha): 2.3
Phytotoxic effect, visual assessment: Bentgrass Week 4 (Bentgrass; 0.96 kg/ha): 1.7
Phytotoxic effect, visual assessment: Bentgrass Week 6 (Bentgrass; 0.96 kg/ha): 2.0
Phytotoxic effect, visual assessment: Bentgrass Week 2 (Bentgrass; 1.92 kg/ha): 3.3
Phytotoxic effect, visual assessment: Bentgrass Week 4 (Bentgrass; 1.92 kg/ha): 4.2
Phytotoxic effect, visual assessment: Bentgrass Week 6 (Bentgrass; 1.92 kg/ha): 4.2
Phytotoxic effect, visual assessment: Perennial ryegrass Week 2 (Perennial ryegrass; 0.48 kg/ha (recommended rate)): 1.3
Phytotoxic effect, visual assessment: Perennial ryegrass Week 4 (Perennial ryegrass; 0.48 kg/ha (recommended rate)): 0.3
Phytotoxic effect, visual assessment: Perennial ryegrass Week 6 (Perennial ryegrass; 0.48 kg/ha (recommended rate)): 0.3
Phytotoxic effect, visual assessment: Perennial ryegrass Week 2 (Perennial ryegrass; 0.96 kg/ha): 2.0
Phytotoxic effect, visual assessment: Perennial ryegrass Week 4 (Perennial ryegrass; 0.96 kg/ha): 2.0
Phytotoxic effect, visual assessment: Perennial ryegrass Week 6 (Perennial ryegrass; 0.96 kg/ha): 1.3
Phytotoxic effect, visual assessment: Perennial ryegrass Week 2 (Perennial ryegrass; 1.92 kg/ha): 3.3
Phytotoxic effect, visual assessment: Perennial ryegrass Week 4 (Perennial ryegrass; 1.92 kg/ha): 2.7
Phytotoxic effect, visual assessment: Perennial ryegrass Week 6 (Perennial ryegrass; 1.92 kg/ha): 2.3
Suppression ratio relative to the biomass of the untreated group: Annual bluegrass 1 leaf (Annual bluegrass; .24 kg/ha): 90%
Suppression ratio relative to the biomass of the untreated group: Annual bluegrass 2 leaf (Annual bluegrass; .24 kg/ha): 87%
Suppression ratio relative to the biomass of the untreated group: Annual bluegrass 3 leaf (Annual bluegrass; .24 kg/ha): 46%
Suppression ratio relative to the biomass of the untreated group: Annual bluegrass 4 leaf (Annual bluegrass; .24 kg/ha): 4%
Suppression ratio relative to the biomass of the untreated group: Annual bluegrass PRE (Annual bluegrass; .24 kg/ha): 100%
Suppression ratio relative to the biomass of the untreated group: Annual bluegrass 1 leaf (Annual bluegrass; .48 kg/ha): 95%
Suppression ratio relative to the biomass of the untreated group: Annual bluegrass 2 leaf (Annual bluegrass; .48 kg/ha): 88%
Suppression ratio relative to the biomass of the untreated group: Annual bluegrass 3 leaf (Annual bluegrass; .48 kg/ha): 44%
Suppression ratio relative to the biomass of the untreated group: Annual bluegrass 4 leaf (Annual bluegrass; .48 kg/ha): 10%
Suppression ratio relative to the biomass of the untreated group: Annual bluegrass PRE (Annual bluegrass; .48 kg/ha): 100%
Suppression ratio relative to the biomass of the untreated group: Annual bluegrass 1 leaf (Annual bluegrass; .96 kg/ha): 97%
Suppression ratio relative to the biomass of the untreated group: Annual bluegrass 2 leaf (Annual bluegrass; .96 kg/ha): 91%
Suppression ratio relative to the biomass of the untreated group: Annual bluegrass 3 leaf (Annual bluegrass; .96 kg/ha): 61%
Suppression ratio relative to the biomass of the untreated group: Annual bluegrass 4 leaf (Annual bluegrass; .96 kg/ha): 35%
Suppression ratio relative to the biomass of the untreated group: Annual bluegrass PRE (Annual bluegrass; .96 kg/ha): 100%
